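All cell lines were grown in 96-well plates and treated with compound for 48 hours. At the GI50, growth is halved. At the TGI there is no net growth.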

Experiment in all cases: NCI tumour cell line growth inhibition, 48 h
In experiment [1] the test system is CAKI-1 renal.
Experiment [2] concerns HCT-116 colon.
The subject of experiment [3] is SK-OV-3 ovarian.
Experiment [4] deals with T-47D breast.
For experiment [5], the system named is A549 NSCLC.
Experiment [6] relates to SK-MEL-28 melanoma.
For experiment [7], the system named is MOLT-4 leukemia.
In experiment [8] the test system is HOP-62 NSCLC.
The test system of experiment [9] is SR leukemia.

As for `c1ccc(CNc2ncnc3n[nH]nc23)cc1`, the TGI in experiment [1], in experiment [2], in experiment [3], in [4], in experiment [5] and in experiment [6] was over 100 µM throughout. Also, the TGI in experiment [7] and in experiment [8] was over 100 µM in each case.

For `c1cc2ccc1CNCCN1CCNCc3ccc(cc3)Oc3ccc(cc3)CNCCN(CCNCc3ccc(cc3)O2)CCNCc2ccc(cc2)Oc2ccc(cc2)CNCC1`, the GI50 in experiment [1] is 3.07 µM; in [3] it was 1.72 µM; in [4], 1.63 µM; in [6], 1.75 µM; in experiment [8], 1.51 µM. Besides, the TGI in experiment [1] was 12.9 µM; in [3], 3.15 µM; in experiment [4] it was 3.61 µM; in experiment [6], 3.21 µM; in experiment [8], 2.96 µM.

As for `CC1(C)CC2(C)OC(=N)C1(C#N)C2(C#N)C#N` (configuration not stated), the TGI is 12.3 µM in experiment [1]; 20.1 µM in experiment [2]; over 100 µM in [3]; 37.7 µM in [4]; 60 µM in experiment [5]; 38.1 µM in [7].

Consider `C=C1C(=O)O[C@H]2C3C(=C(C)CC[C@@H]12)C(=O)[C@@H]1OC31C` (some centres not stated), for which the TGI in experiment [1] is 7.9 µM; in experiment [2] it was 2.7 µM; in experiment [3] it was 29.4 µM; in experiment [4], 3.96 µM; in experiment [5], 28.3 µM; in [6] it was 5.52 µM. In addition, the TGI in [7] worked out at 3.27 µM; in experiment [8] it was 28.6 µM.

For the compound `Cn1c(=O)c2[nH]c(CCC(=O)O)nc2n(C)c1=O`, the TGI in experiment [1], in experiment [9], in experiment [2], in experiment [3], in experiment [4] and in [5] was over 100 µM throughout. Further, the TGI in experiment [6] and in experiment [8] was over 100 µM each time.

On to `CCC1CCC2c3c([nH]c4ccccc34)C3C(=O)N(c4ccc(OC)cc4)C(=O)C3C2C1` (configuration not stated), for which the TGI was 32.1 µM in experiment [9]; over 100 µM in experiment [2]; over 100 µM in experiment [3]; 55.8 µM in experiment [4]; 59.7 µM in [5]; over 100 µM in experiment [6]. For the same compound, the results for the TGI in experiment [7] and in experiment [8] were 32.5 µM and over 100 µM, respectively.

Take `O=C(C=P(c1ccccc1)(c1ccccc1)c1ccccc1)c1ccc(-c2ccc(F)cc2F)cc1`: the TGI was 5.55 µM in experiment [1]; 7.55 µM in experiment [9]; 8.81 µM in experiment [2]; 8.63 µM in [3]; 7.58 µM in experiment [4]; 11.4 µM in experiment [5]. Moreover, the TGI was 8.14 µM in [6] and 15.5 µM in experiment [8].

For `Oc1ccc2ccccc2c1OCc1nnc(CCCCCCCCc2nnc(COc3c(O)ccc4ccccc34)o2)o1`, the TGI in experiment [1] was over 100 µM; in [2], 54.5 µM; in [3], over 100 µM; in experiment [5], over 100 µM; in experiment [6], over 100 µM; in experiment [7] it was over 100 µM.

Take `CCOC(=O)c1cc(-c2ccn(C(C)=O)c2)c(-c2cc(C)co2)[nH]1`: the TGI in experiment [1], in experiment [9], in [2], in experiment [4], in experiment [5] and in experiment [6] was over 100 µM in each case. Besides, the TGI in experiment [7] and in experiment [8] was over 100 µM throughout.

On to `COc1ccc(NS(=O)c2cccc(C)c2)cc1` (configuration not stated), for which the TGI in [1], in experiment [9], in experiment [2], in experiment [5], in experiment [6] and in experiment [7] was over 100 µM in each case. In experiment [8], this compound had a TGI of over 100 µM.

As to `O=S(=O)(/N=C1/SC(=Nc2ccccc2)N(c2ccccc2)/C1=N/S(=O)(=O)c1ccccc1)c1ccccc1`, the TGI amounted to 50.6 µM in experiment [9]; 38.4 µM in experiment [2]; 69 µM in experiment [5]; 34 µM in [6]; 62.2 µM in experiment [7]; 80.4 µM in experiment [8].

Take `O=c1oc2ccccc2c(O)c1Cc1cccc(Cc2c(O)c3ccccc3oc2=O)c1`: the TGI in [1], in [2], in experiment [3], in [4], in experiment [5] and in experiment [6] was over 100 µM in each case. Besides, the TGI in experiment [7] and in experiment [8] was over 100 µM in each case.

For the compound `C=C1C(=O)O[C@H]2C/C(C=O)=C\[C@H]3O[C@H]3/C(COC(=O)C(C)C)=C/CC12` (some centres not stated), the TGI was 7.31 µM in experiment [1]; 7.95 µM in [9]; 10.1 µM in [2]; 7 µM in experiment [4]; 37.3 µM in experiment [5]; 14.8 µM in [6]. Besides, the values for the TGI in experiment [7] and in experiment [8] were 10.6 µM and 26.5 µM, respectively.

`CN(C)C=Nc1nncc2n[nH]nc12`: the TGI in experiment [1], in experiment [9], in experiment [2], in experiment [4], in experiment [5] and in experiment [6] was over 100 µM in each case. In addition, the TGI in [7] and in experiment [8] was over 100 µM each time.

For `CCOC(=O)c1c(-c2ccc(OC)c(O)c2)c(C#N)c(=S)n(C2OC(CO)C(O)C(O)C2O)c1-c1ccccc1` (configuration not stated), the TGI in experiment [1], in experiment [9], in experiment [2], in [5], in [6] and in experiment [7] was over 100 µM in each case. The compound further had a TGI in experiment [8] of over 100 µM.

As to `O=C(O)CCCc1ccc2c(c1)CC1(C2)Cc2ccc(CCCC(=O)O)cc2C1`, the TGI in [9], in experiment [2], in experiment [3], in experiment [4], in experiment [5] and in [7] was over 100 µM in each case. The TGI in experiment [8] is over 100 µM.

Take `Cc1ccc(S(=O)(=O)N2CCN(CCO)CCN(S(=O)(=O)c3ccc(C)cc3)CCN(CCO)CC2)cc1`: the TGI in [1] is over 100 µM; in experiment [9], 27.8 µM; in experiment [2] it was 29.1 µM; in [4], 36.2 µM; in experiment [5] it was 57 µM; in [6], 30.2 µM. For the same compound, the TGI turned out to be 57.1 µM in experiment [7] and 81.5 µM in experiment [8].

Turning to `CC(C)c1nccn1Cc1ccc(Cl)cc1Cl`, the TGI was over 100 µM in experiment [1]; over 100 µM in experiment [9]; 63.4 µM in experiment [2]; over 100 µM in experiment [3]; over 100 µM in [5]; over 100 µM in experiment [6]. The compound also registered a TGI in [8] of over 100 µM.

On to `Cc1cc(C)c2c(c1)CC1(Cc3c(C)cc(C)cc3C1=O)C2=O` (configuration not stated), for which the TGI in experiment [1], in experiment [9], in experiment [5], in [6] and in experiment [7] was over 100 µM in each case.

For the compound `COC(=O)C1=C(C)NC2(C)OC(C)(O)C(C(C)=O)C12C(C)=O` (configuration not stated), the TGI is over 100 µM in [1]; over 100 µM in [2]; 85.8 µM in experiment [3]; over 100 µM in experiment [4]; over 100 µM in experiment [5]; over 100 µM in experiment [6]. Moreover, the TGI in experiment [7] and in experiment [8] was over 100 µM throughout.

Consider `O=C(Nc1nc(C23CC4CC(CC(C4)C2)C3)cs1)c1cc2cc([N+](=O)[O-])ccc2oc1=O`, for which the TGI in [1], in [9], in [2], in experiment [5], in experiment [6] and in [7] was over 100 µM throughout. The TGI in experiment [8] is over 100 µM.

As to `O=c1/c(=C/c2ccc(-c3ccc(Cl)cc3Cl)o2)sc2n1[C@@H](c1ccc3c(c1)OCO3)C=C(c1cc(F)c(Cl)cc1Cl)N=2`, the TGI was over 100 µM in [1]; over 100 µM in experiment [2]; 62.1 µM in [3]; over 100 µM in experiment [4]; over 100 µM in experiment [5]; over 100 µM in experiment [6]. Besides, the TGI was over 100 µM in experiment [7] and 28.9 µM in experiment [8].

Consider `COC1=CC(=O)c2c(cc(COP(=O)(N(C)CCBr)N(C)CCBr)n2C)C1=O`, for which the TGI in experiment [1] was determined as 2.26 µM; in experiment [2] it was 4.85 µM; in experiment [3], 8.3 µM; in [4], 33 µM; in [5], 7.18 µM; in experiment [6] it was 3.51 µM. Moreover, the TGI in [7] is over 100 µM; in experiment [8] it was 5.23 µM.

For the compound `O=C(NCCCCNCCCNC(=O)OCc1ccccc1)OCc1ccccc1`, the TGI in experiment [9] was 92.3 µM; in experiment [2], 70 µM; in [3], over 100 µM; in experiment [4], 57.8 µM; in experiment [5] it was over 100 µM; in [6], 40 µM. The figures for the TGI in [7] and in experiment [8] were 73.6 µM and over 100 µM, respectively.

Consider `O=C(NCc1ccccc1)c1c(O)c2ccccc2[nH]c1=O`, for which the TGI in experiment [1], in experiment [9], in experiment [2], in experiment [5], in [6] and in experiment [7] was over 100 µM in each case. Also, the TGI in experiment [8] was over 100 µM.

On to `O=c1c(-c2ccc(O)cc2)coc2cc(O)cc(O)c12`, for which the TGI in [9], in [4], in experiment [5], in experiment [6] and in experiment [7] was over 100 µM each time.

For the compound `COC(=O)[C@@H]1O[C@]12[C@@H](CO[Si](C)(C)C(C)(C)C)O[C@@H](n1cc(C)c(=O)[nH]c1=O)[C@@H]2O[Si](C)(C)C(C)(C)C`, the TGI was 70 µM in [1]; 29.9 µM in experiment [2]; over 100 µM in experiment [3]; 27.3 µM in experiment [4]; 64 µM in [5]; 38.5 µM in [6]. The TGI was found to be 7.42 µM in [7] and 70.7 µM in experiment [8].

In the case of `Cc1ccc2cnc(N)c(C#Cc3cncc(C(=O)Nc4ccc(CN5CCN(C)CC5)c(C(F)(F)F)c4)c3)c2c1`, the GI50 is 0.627 µM in experiment [1]; 0.162 µM in experiment [9]; 0.869 µM in experiment [3]; 0.485 µM in experiment [5]; 0.616 µM in [6]; 0.205 µM in experiment [7]. In addition, the GI50 in experiment [8] was 0.562 µM. Besides, the TGI in [1] was found to be 1.27 µM; in [9], 1.3 µM; in experiment [3], 1.63 µM; in experiment [5], 1.19 µM; in experiment [6], 1.25 µM; in [7], 0.936 µM. Also, the TGI in [8] was found to be 1.19 µM.

`Cc1cccc(C(O)c2cccnc2)c1O` (configuration not stated): the TGI in experiment [1], in experiment [9], in experiment [2], in experiment [4], in experiment [5] and in [6] was over 100 µM throughout. For the same compound, the TGI in experiment [7] and in experiment [8] was over 100 µM throughout.

`CC(C)CC(NC(=O)C(COc1ccc([N+](=O)[O-])cc1)Cc1ccccc1)C(=O)Nc1ccccc1` (configuration not stated): the TGI in experiment [1] is 83.8 µM; in experiment [9] it was over 100 µM; in experiment [2], over 100 µM; in experiment [3], 28.5 µM; in experiment [5] it was 69.2 µM; in [7], over 100 µM.

As for `CC1(C)CC(=O)C(=CN2C(=O)CNC2=S)C(=O)C1`, the TGI in experiment [1], in [2], in [3], in [5], in experiment [7] and in experiment [8] was over 100 µM throughout.

For the compound `S=C(Nc1ccc2c(c1)Cc1ccccc1-2)Nc1ccc2c(c1)Cc1ccccc1-2`, the TGI in experiment [1], in [2], in experiment [3], in experiment [4], in experiment [5] and in experiment [6] was over 100 µM throughout. Moreover, the TGI in experiment [7] is 39.5 µM; in experiment [8], over 100 µM.

Source of the values: PubChem BioAssay (NCI).
